Data on ten compounds can be found in ChEMBL document CHEMBL1126467, “Discovery of dual activity molecules with thromboxane antagonist and thromboxane synthase inhibitory activity” (Bioorg Med Chem Lett, 1992).

Each structure is given as a SMILES string.

The target of experiment [1] is T1, Thromboxane-A synthase (Homo sapiens, UniProt P24557).
T1 sequence (P24557 whole entry): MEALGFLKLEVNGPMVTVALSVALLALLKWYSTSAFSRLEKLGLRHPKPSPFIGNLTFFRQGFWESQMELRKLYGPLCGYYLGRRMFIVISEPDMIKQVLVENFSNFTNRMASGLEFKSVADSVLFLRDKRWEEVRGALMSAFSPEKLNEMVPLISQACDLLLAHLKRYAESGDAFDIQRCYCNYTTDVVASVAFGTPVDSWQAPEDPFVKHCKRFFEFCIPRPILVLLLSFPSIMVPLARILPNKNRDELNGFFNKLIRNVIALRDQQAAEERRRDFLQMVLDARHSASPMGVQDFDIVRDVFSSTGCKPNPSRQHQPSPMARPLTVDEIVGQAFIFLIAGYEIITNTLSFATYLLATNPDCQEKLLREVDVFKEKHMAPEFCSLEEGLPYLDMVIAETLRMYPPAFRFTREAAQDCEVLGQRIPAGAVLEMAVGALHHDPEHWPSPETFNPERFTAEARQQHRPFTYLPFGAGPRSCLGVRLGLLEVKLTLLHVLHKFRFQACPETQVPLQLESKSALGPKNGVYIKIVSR
The experiment can be described thus: Human microsomal Thromboxane synthase inhibition was determined by inhibiting TXB2 formation from [14C]- labelled arachidonic acid.

Experiment [2] concerns the target T2, Thromboxane A2 receptor (Homo sapiens, UniProt P21731).
T2 sequence (P21731 whole entry): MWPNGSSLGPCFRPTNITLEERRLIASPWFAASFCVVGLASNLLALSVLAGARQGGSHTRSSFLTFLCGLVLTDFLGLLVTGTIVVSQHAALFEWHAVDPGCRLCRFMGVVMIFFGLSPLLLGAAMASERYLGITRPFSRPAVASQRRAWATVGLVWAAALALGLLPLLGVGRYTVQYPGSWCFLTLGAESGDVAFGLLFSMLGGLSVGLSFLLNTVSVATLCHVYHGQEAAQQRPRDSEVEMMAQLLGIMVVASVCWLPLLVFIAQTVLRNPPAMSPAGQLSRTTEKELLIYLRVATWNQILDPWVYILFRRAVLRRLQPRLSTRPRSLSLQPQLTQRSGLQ
The experiment can be described thus: Tested for thromboxane antagonist potency (pA2) against […] induced platelet aggregation using human platelet rich plasma. The format is functional, cell-free. Particulars: read-out: pA2 (converted); call rule not given here.

Experiment [3] concerns the target T3, Thromboxane A2 receptor (Rattus norvegicus) (UniProt P34978).
T3 sequence (whole entry): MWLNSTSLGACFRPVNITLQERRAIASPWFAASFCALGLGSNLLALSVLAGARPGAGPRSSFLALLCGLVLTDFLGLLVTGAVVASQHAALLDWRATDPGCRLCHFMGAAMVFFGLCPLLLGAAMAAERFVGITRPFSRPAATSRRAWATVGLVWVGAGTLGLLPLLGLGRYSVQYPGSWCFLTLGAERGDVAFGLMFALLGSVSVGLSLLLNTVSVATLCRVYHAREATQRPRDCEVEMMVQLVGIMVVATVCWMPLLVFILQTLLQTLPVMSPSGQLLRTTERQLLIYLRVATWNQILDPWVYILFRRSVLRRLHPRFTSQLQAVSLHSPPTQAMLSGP
The experiment can be described thus: Compound was tested for in vivo inhibition of thromboxane A2 receptor inhibition 1 hr after administration of 10 mg/kg orally to rat. The format is organism-based. Further details: dose 10 mg/kg. Particulars: at 10 mg/kg.

The target of experiment [4] is T3, Thromboxane A2 receptor (Rattus norvegicus). Briefly: Compound was tested for in vivo inhibition of thromboxane-A2 receptor inhibition 3 hr after administration of 10 mg/kg orally to rat. Also on record: dose 10 mg/kg. The format is organism-based. The conditions noted are these: at 10 mg/kg.
Experiment [5] has the same target. Briefly: Compound was tested for in vivo inhibition of thromboxane-A2 receptor inhibition 5 hr after administration of 10 mg/kg orally to rat. The format is organism-based. Particulars: at 10 mg/kg. Also on record: dose 10 mg/kg.
The target in experiment [6] is T1, Thromboxane-A synthase. The experiment can be described thus: Human microsomal Thromboxane synthase inhibition was determined by inhibiting TXB2 formation from [14C]- labelled arachidonic acid; Not active.

For the compound `O=C(O)CC1CCCc2c1n(Cc1cccc(OCCC/C=C\c3cccnc3)c1)c1ccc(F)cc21` (stereo not drawn), half-maximal inhibition in experiment [1] (IC50) was put at 200 nM. Moreover, in experiment [2], the Kb is 631 nM.
Compound `O=C(O)CC1CCCc2c1n(Cc1cccc(OCCCC#Cc3cccnc3)c1)c1ccc(F)cc21` (stereo not drawn) gave an IC50 in experiment [1] of 50 nM. Moreover, the inhibition in experiment [3] was determined as 86%; in experiment [4], 77%; in experiment [5], 71%. Besides, the Kb in experiment [2] was 1000 nM.
As for `O=C(O)CC1CCCc2c1n(Cc1ccc(OCCCC#Cc3cccnc3)cc1)c1ccc(F)cc21` (stereo not drawn), in experiment [1], inhibition was half-maximal at 600 nM (IC50). Besides, the Kb in experiment [2] was 158 nM.
On to `O=C(O)CC1CCCc2c1n(Cc1cccc(OCCCCCc3cccnc3)c1)c1ccc(F)cc21` (stereo not drawn), for which the half-maximal inhibitory concentration (IC50) in experiment [1] was 300 nM. Moreover, the Kb in experiment [2] was 3160 nM.
Turning to `O=C(O)CC1CCCc2c1n(Cc1cccnc1)c1ccc(F)cc21` (stereo not drawn), in experiment [6], the 50% inhibitory concentration (IC50) entry is “Not Active”. In addition, in experiment [2], the Kb was 3160 nM.
Consider `O=C(O)CC1CCCc2c1n(Cc1ccc(Cl)cc1)c1ccc(F)cc21` (stereo not drawn), for which the IC50 entry in experiment [6] is “Not Active”. In addition, the Kb in experiment [2] was 79.4 nM.
On to `O=C(O)CC1CCCc2c1n(Cc1cccc(OCCCCc3cccnc3)c1)c1ccc(F)cc21` (stereo not drawn), for which, in experiment [1], the IC50 stood at 100 nM. Also, the Kb in experiment [2] was 501 nM.
The corresponding values for `O=C(O)CC1CCCc2c1n(Cc1cccc(CCCCCc3cccnc3)c1)c1ccc(F)cc21` (stereo not drawn) are 500 nM and 3980 nM.
In experiment [1], `O=C(O)CC1CCCc2c1n(Cc1cccc(OCCCCC#Cc3cccnc3)c1)c1ccc(F)cc21` (stereo not drawn) displayed an IC50 of 40 nM. In experiment [2], the Kb is 2510 nM.
With `O=C(O)CC1CCCc2c1n(Cc1ccc(OCCCCC#Cc3cccnc3)cc1)c1ccc(F)cc21` (stereo not drawn), 400 nM corresponded to half-maximal inhibition in experiment [1] (IC50). The Kb in experiment [2] was 200 nM.

What is called IC50 is the midpoint of a concentration-inhibition curve. Low readings indicate greater potency in that assay, high ones weaker potency in that assay. By inhibition is commonly meant the percentage by which the read-out fell short of the control. Read a low inhibition as a weak effect.
